Type in all cases: cell-based
One assay relates to normal AML12 hepatocytes. Description: Resazurin reduction cytotoxicity assay, normal AML12 hepatocytes. As to conditions: Mus musculus, read-out: IC50 values. The method, then:
(§1) The resazurin reduction assay was performed to assess the cytotoxicity of compounds and doxorubicin as control drug towards various sensitive and drug-resistant cancer cell lines, including the CCRF-CEM and CEM/ADR5000 leukemia, MDA-MB231 breast cancer cells and its resistant subline MDA-MB231/BCRP, HCT116p53^+/+ colon cancer cells and its resistant subline HCT116p53^−/−, U87MG glioblastoma cells and its resistant subline U87MG. ΔEGFR and HepG2 hepatocarcinoma cells and normal AML12 hepatocytes. The assay is based on the reduction of the indicator dye, resazurin, to the highly fluorescent resorufin by viable cells. […] Briefly, adherent cells were detached by treatment with 0.25% trypsin/EDTA (Invitrogen, Darmstadt Germany) and an aliquot of 1 × 10^4 cells was placed in each well of a 96-well cell culture plate (Thermo Scientific, Langenselbold, Germany) in a total volume of 200 μL. Cells were allowed to attach overnight and then were treated with different concentrations of compounds. For suspension cells, aliquots of 2 × 10^4 cells per well were seeded in 96-well-plates in a total volume of 100 μL. The studied compounds were immediately added in varying concentrations in an additional 100 μL of culture medium to obtain a total volume of 200 μL/well. After 72 h, resazurin (Sigma-Aldrich, Schnelldorf, Germany) (20 μL, 0.01% w/v) in distilled H2O was added to each well and the plates were incubated at 37°C for 4 h. Fluorescence was measured on an Infinite M2000 ProTM plate reader (Tecan, Crailsheim, Germany) using an excitation wavelength of 544 nm and an emission wavelength of 590 nm. Each assay was done at least twice with six replicates each. The viability was evaluated based on a comparison with untreated cells. IC50 values represent the compound concentrations required to inhibit 50% of cell proliferation and were calculated from a calibration curve by linear regression using Microsoft Excel.
In general terms: Alamar Blue is a resazurin reagent that responds to reducing activity.

Assay [1] has as its system MDA-MB231 breast cancer cells. The experiment in a line: Resazurin reduction cytotoxicity assay, MDA-MB231. To be noted: Homo sapiens, read-out: IC50 values. The method, then:
as §1

A further assay concerns U87MG glioblastoma cells. Description: Resazurin reduction cytotoxicity assay, U87MG. To be noted: Homo sapiens, U-87 MG, 72 h, read-out: IC50 values. The protocol: as §1
For assay [2], the system named is HCT116 (p53+/+) colon cancer cells. Description: Resazurin reduction cytotoxicity assay, HCT116 (p53+/+). To be noted: Homo sapiens, read-out: IC50 values. The protocol:
as §1

The test system of another assay is MDA-MB231/BCRP cells. Description: Resazurin reduction cytotoxicity assay, MDA-MB231/BCRP. To be noted: MDA-MB-231/BCRP, 72 h, read-out: IC50 values. The method, then:
as §1

The test system of assay [3] is nine tested cancer cell lines. Description: Resazurin reduction cytotoxicity assay, panel of nine cancer cell lines. To be noted: all nine cancer cell lines, 72 h, read-out: IC50 values towards all the nine tested cancer cell lines. The method, then:
as §1, with “The studied compounds were immediately added in varying concentrations in an additional 100 μL of culture medium to obtain a total volume of 200 μL/well. After 72 h, resazurin (Sigma-Aldrich, Schnelldorf, Germany) (20 μL, 0.01% w/v) in distilled H2O was added to each well and the plates were incubated at 37°C for 4 h.” left out, “Each assay was done at least twice with six replicates each.” left out, “IC50 values represent the compound concentrations required to inhibit 50% of cell proliferation and were calculated from a calibration curve by linear regression using Microsoft Excel.” left out

Assay [4] has as its system HCT116 (p53-/-) colon cancer cells. The experiment in a line: Resazurin reduction cytotoxicity assay, HCT116 (p53-/-). As to conditions: Homo sapiens, read-out: IC50 values. The protocol:
as §1

Another assay concerns U87MG. ΔEGFR cells. The experiment in a line: Resazurin reduction cytotoxicity assay, U87MG.ΔEGFR. As to conditions: Homo sapiens, U-87 MG, 72 h, read-out: IC50 values. The protocol: as §1
A further assay relates to CCRF-CEM leukemia cells. Description: Resazurin reduction cytotoxicity assay, CCRF-CEM. To be noted: Homo sapiens, 72 h, read-out: IC50 values. The protocol:
as §1

In assay [5] the test system is HepG2 hepatocarcinoma cells. The experiment in a line: Resazurin reduction cytotoxicity assay, HepG2. To be noted: Homo sapiens, read-out: IC50 values. The protocol:
as §1

In assay [6] the test system is CEM/ADR5000 leukemia cells. The experiment in a line: Resazurin reduction cytotoxicity assay, CEM/ADR5000. To be noted: Homo sapiens, read-out: IC50 values. The method, then:
as §1

Setting [7] is: normal AML12 hepatocytes, resazurin assay, 72 h.
The mark [8] stands for this setting: MDA-MB-231, MDA-MB231 breast cancer cells, resazurin assay, 72 h.
The mark [9] stands for this setting: U87MG glioblastoma cells, resazurin assay.
Setting [10] is: MDA-MB231/BCRP resistant subline, resazurin assay.
Where [11] appears, read: U87MG. ΔEGFR resistant subline, resazurin assay.
The mark [12] stands for this setting: CCRF-CEM leukemia (sensitive), resazurin assay.
Where [13] appears, read: HepG2 hepatocarcinoma cells, resazurin assay, 72 h.
[14] abbreviates: CEM/ADR5000 leukemia (resistant), resazurin assay, 72 h.

Read-outs that look alike come from different tables or passages of the source. Bounds are passed on as bounds.

Usually IC50 stands for the midpoint of a concentration-inhibition curve. With `COc1c(O)ccc2c1C(O)N(C)c1c-2ccc2cc3c(cc12)OCO3` (stereo not drawn) [Compound 1, 1-methoxy-12-methyl-12,13-dihydro-[1,3]dioxolo[4′,5′:4,5]benzo[1,2-c]phenanthridine-2,13-diol], the half-maximal inhibitory concentration (IC50) in the assay on normal AML12 hepatocytes (setting [7]) is more than 107 µM; in assay [1] (setting [8]), 30.1 ± 4.12 µM; in the assay on U87MG glioblastoma cells (setting [9]), 60.6 ± 7.29 µM; in [2] (HCT-116, HCT116 (p53+/+) colon cancer cells, resazurin assay, 72 h) it was 42.5 ± 3.22 µM; in the assay on MDA-MB231/BCRP cells (setting [10]), 65 ± 5.37 µM; in assay [3], not above 65 µM. Moreover, the IC50 in assay [4] (HCT-116, HCT116 (p53-/-) resistant subline, resazurin assay, 72 h) worked out at 62.3 ± 4.41 µM; with U87MG. ΔEGFR cells (setting [11]) it was 61.8 ± 4.68 µM; in the assay on CCRF-CEM leukemia cells (setting [12]), 240 ± 10 nM; in assay [5] (setting [13]) it was 22.4 ± 1.97 µM; in assay [6] (setting [14]), 31.6 ± 3.48 µM.

On to `COc1c(O)ccc2c1c[n+](C)c1c3cc4c(cc3ccc21)OCO4` [Compound 2, isofagaridine], for which the IC50 in the assay on normal AML12 hepatocytes (AML12, 72 h) is more than 120 µM; in assay [1] (MDA-MB-231, 72 h), 41.4 ± 3.44 µM; in the assay with U87MG glioblastoma cells it was 105 ± 9.16 µM; in assay [2] (HCT-116, 72 h), 87.1 ± 7.55 µM; with MDA-MB231/BCRP cells, 114 ± 9.82 µM; in assay [4] (HCT-116, 72 h), more than 120 µM. Moreover, the 50% inhibitory concentration (IC50) turned out to be 115 ± 13.8 µM in the assay with U87MG. ΔEGFR cells; 300 ± 40 nM in the assay on CCRF-CEM leukemia cells (CCRF-CEM); 26.7 ± 3.15 µM in assay [5] (HepG2, 72 h); 20.4 ± 2.16 µM in assay [6] (ADR5000, 72 h).

As for `COc1c2cc3c(cc2nc2occc12)OCO3` [Compound 3, maculine], the IC50 in the assay on normal AML12 hepatocytes (AML12, 72 h) was more than 165 µM; in [1] (MDA-MB-231, 72 h), more than 165 µM; in the assay with U87MG glioblastoma cells it was more than 165 µM; in assay [2] (HCT-116, 72 h), more than 165 µM; in the assay with MDA-MB231/BCRP cells, more than 165 µM; in assay [4] (HCT-116, 72 h) it was more than 165 µM. Further, the concentration for half-maximal inhibition (IC50) with U87MG. ΔEGFR cells is more than 165 µM; in the assay with CCRF-CEM leukemia cells (CCRF-CEM), 89100 ± 6220 nM; in assay [5] (HepG2, 72 h) it was more than 165 µM; in [6] (ADR5000, 72 h), 63.1 ± 3.75 µM.

Take `COc1cc2nc3occc3c(OC)c2cc1OC` [Compound 4, kokusaginine]: the IC50 is more than 154 µM in the assay with normal AML12 hepatocytes (AML12, 72 h); 62 ± 7.24 µM in [1] (MDA-MB-231, 72 h); 70.1 ± 6.4 µM with U87MG glioblastoma cells; 120 ± 13.1 µM in assay [2] (HCT-116, 72 h); more than 154 µM in the assay with MDA-MB231/BCRP cells; more than 154 µM in assay [4] (HCT-116, 72 h). For the same compound, the IC50 with U87MG. ΔEGFR cells was more than 154 µM; in the assay with CCRF-CEM leukemia cells (CCRF-CEM), 49800 ± 5040 nM; in [5] (HepG2, 72 h), 90.8 ± 8.86 µM; in assay [6] (ADR5000, 72 h), 44.6 ± 3.92 µM.

Regarding `COc1cccc2c1C(=O)c1c(O)c3c(c(O)c1C2=O)C[C@@](O)(C(=O)CO)C[C@@H]3O[C@H]1C[C@H](N)[C@H](O)[C@H](C)O1` [Doxorubicin, doxorubicin, reference compound], the 50% inhibitory concentration (IC50) in the assay with normal AML12 hepatocytes (setting [7]) was more than 73.6 µM; in [1] (setting [8]), 1.1 ± 0.28 µM; with U87MG glioblastoma cells (setting [9]), 1.06 ± 0.15 µM; in [2] (HCT-116, 72 h), 1.41 ± 0.29 µM; in the assay with MDA-MB231/BCRP cells (setting [10]), 7.83 ± 0.47 µM; in assay [4] (HCT-116, 72 h) it was 4.06 ± 0.07 µM. In addition, the half-inhibitory concentration (IC50) amounted to 6.11 ± 0.57 µM in the assay with U87MG. ΔEGFR cells (setting [11]), 200 ± 60 nM in the assay with CCRF-CEM leukemia cells (setting [12]), 3.83 ± 0.94 µM in assay [5] (setting [13]) and 195 ± 14.3 µM in assay [6] (setting [14]).

The record behind these values is paper PMC4207896, “Cytotoxic Benzophenanthridine and Furoquinoline Alkaloids from Zanthoxylum buesgenii (Rutaceae)” (Chemistry Central Journal, 2014).
